Test results reported in US11607393B2, “Drug delivery method for targeting cancer stem cells” (priority 2017, dated 2023).

What was measured:
EGFR = assay: Expression of stem cell marker EGFR in MDA-MB-231 cells in 3D non-adherent matrix; format: cell-based, human; details: as a function of incubation time (FIG. 6B)
Method: (§1) MDA-MB-231 human breast cancer cells were cultured on 2D adherent polystyrene culture plates that enriched the differentiated cell sub-population (CDC) and in 3D polyethylene glycol diacrylate crosslinked non-adherent matrix that enriches the stem sub-population (CSC). FIGS. 4A-4D compare cell content and the expression of CD44, ABCG2, and EGFR markers as a function of time.
(§2) FIG. 6A and FIG. 6B show the expression of CSC markers CD44 and EGFR, respectively, of MDA-MB-231 (MDA) human breast cancer cells grown in a 3D non-adherent matrix, as described in Example 1 above, after exposure to free Paclitaxel (PTX) or PTX conjugated to POSS nanoparticles (PTXconjPOSS) as a function of incubation time.

[1] = tested on: MDA-MB-231 human breast cancer cells; assay: MDA-MB-231 cells on 2D adherent polystyrene culture plates (differentiated sub-population), cell viability; format: cell-based
Method: as §1
FIGS. 5A-5D show the response of the MDA-MB-231 human breast cancer cells cultured in 2D adherent plates and 3D non-adherent matrix to treatment with Doxorubicin (DOX) cancer drug. For the 2D culture, cell viability decreased exponentially as the drug concentration increased (FIG. 5A) and reached about 5% as the drug concentration was increased to 5 μM.

CD44 = assay: Expression of CSC marker CD44 in MDA-MB-231 cells in 3D non-adherent matrix; format: cell-based, human
Method: as §1, §2

[2] = tested on: MDA-MB-231 human breast cancer cells; assay: MDA-MB-231 cells in 3D non-adherent PEG diacrylate matrix (stem sub-population), cell viability and tumorsphere number; format: cell-based

Structure (SMILES)	expression of EGFR (EGFR)	effectiveness against the differentiated sub-population of cancer cells ([1]; no data shown)	expression of CD44 (CD44; 3D non-adherent matrix, as a function of incubation time (FIG. 6A))	toxicity to CSCs (CD44; concluded from CD44 and EGFR expression in 3D non-adherent matrix)	number of tumorspheres ([2]; 3D matrix, 0.5 μM DOX concentration (FIG. 5C))	number of tumorspheres, % of the initial number ([2]; 3D matrix, DOX concentration above 0.5 μM (FIG. 5C)) [%]	cell viability ([2]; 3D matrix, drug concentration 0.5 μM (FIG. 5B))	effectiveness against cells in 3D non-adherent matrix ([2]; 3D non-adherent matrix, stem cell sub-population dominates (FIGS. 5B-5D))	viability at 5 µM ([2]; Homo sapiens, MDA-MB-231, 3D matrix, 5 μM DOX concentration (FIG. 5B)) [%]	cells removed ([1]; 2D culture (FIG. 5A)) [%]	viability at 5 µM ([1]; Homo sapiens, MDA-MB-231, 2D culture, drug concentration 5 μM (FIG. 5A)) [%]	expression of CSC marker CD44 (CD44; 3D matrix, higher DOX concentrations (FIG. 5D))
CC(=O)O[C@H]1C(=O)[C@@]2(C)[C@H]([C@H](OC(=O)c3ccccc3)[C@]3(O)C[C@H](OC(=O)[C@H](O)[C@@H](NC(=O)c4ccccc4)c4ccccc4)C(C)=C1C3(C)C)[C@]1(OC(C)=O)CO[C@@H]1C[C@@H]2O [PTX, Paclitaxel]	very high expression	effective	very high expression	not toxic to CSCs	–	–	–	–	–	–	–	–
COc1cccc2c1C(=O)c1c(O)c3c(c(O)c1C2=O)C[C@@](O)(C(=O)CO)C[C@@H]3O[C@H]1C[C@H](N)[C@H](O)[C@H](C)O1 [DOX, Doxorubicin]	–	–	–	–	first increased	85	first increased	not effective	35	95	~5	dramatically increased
